Patent publication US20060258598A1, “Alpha-keto carbonyl calpain inhibitors” (priority 2003, published 2006)

Key:
[1] = system: cellular calpains in C2C12 myoblasts; assay: Calpain inhibition assay in C2C12 myoblasts; type: cell-based; details: 2 h incubation, calcium ionophore Br-A-23187, read-out: Calp I IC50 Myoblast
Experimental: Calpain Inhibition Assay in C2C12 Myoblasts
This assay is aimed at monitoring the ability of the substance to inhibit cellular calpains. C2C12 myoblasts are grown in 96-well plates in growth medium (DMEM, 20% foetal calf serum) until they reach confluency. The growth medium is then replaced by fusion medium (DMEM, 5% horse serum). 24 hours later the fusion medium is replaced by fusion medium containing the test substances dissolved in 1 μl DMSO. After 2 hours of incubation at 37° C. the cells are loaded with the calpain fluorogenic substrate Suc-Leu-Tyr-AMC at 400 μM in 50 μl of a reaction buffer containing 135 mM NaCl; 5 mM KCl; 4 mM CaCl2; 1 mM MgCl2; 10 mM Glucose; 10 mM HEPES pH 7.25 for 20 min at room temperature. The calcium influx, necessary to activate the cellular calpains, is evoked by the addition of 50 μl reaction buffer containing 20 μM of the calcium ionophore Br-A-23187 (Molecular Probes). The fluorescence of the cleavage product AMC is measured as described above during 60 min at 37° C. at intervals of 1 min. The IC50 values are determined as described above. Comparison of the IC50 determined in the enzymatic calpain inhibition assay to the IC50 determined in the C2C12 myoblasts calpain inhibiton assay, allows to evaluate the cellular uptake or the membrane permeability of the substance.

human μ-calpain = target: T1, human μ-calpain (Homo sapiens, UniProt P07384); assay: Enzymatic calpain inhibition assay; type: biochemical; details: substrate Suc-Leu-Tyr-AMC, read-out: Calp I IC50
T1 construct: purchased Calbiochem
T1 sequence (P07384 1-714): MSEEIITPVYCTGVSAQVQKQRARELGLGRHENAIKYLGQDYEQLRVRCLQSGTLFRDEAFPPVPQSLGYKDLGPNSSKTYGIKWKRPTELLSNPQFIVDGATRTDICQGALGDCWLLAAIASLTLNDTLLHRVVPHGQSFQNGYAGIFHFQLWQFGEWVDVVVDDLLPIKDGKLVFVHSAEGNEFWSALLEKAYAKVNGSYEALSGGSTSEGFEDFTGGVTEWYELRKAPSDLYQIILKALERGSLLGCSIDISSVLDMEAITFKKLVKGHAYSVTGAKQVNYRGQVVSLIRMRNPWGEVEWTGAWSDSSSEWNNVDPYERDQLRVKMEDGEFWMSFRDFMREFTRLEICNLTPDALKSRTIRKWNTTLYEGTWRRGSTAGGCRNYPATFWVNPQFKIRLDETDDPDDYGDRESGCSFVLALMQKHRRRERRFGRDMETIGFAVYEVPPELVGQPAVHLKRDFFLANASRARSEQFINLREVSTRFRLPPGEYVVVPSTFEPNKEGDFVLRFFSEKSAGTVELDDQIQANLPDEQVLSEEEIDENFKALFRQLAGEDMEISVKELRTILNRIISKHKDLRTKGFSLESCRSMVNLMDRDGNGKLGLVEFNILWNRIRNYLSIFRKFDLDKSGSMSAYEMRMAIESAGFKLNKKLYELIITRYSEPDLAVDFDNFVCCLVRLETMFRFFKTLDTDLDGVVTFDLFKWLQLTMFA
T1 sequence (P04632 1-268 partner): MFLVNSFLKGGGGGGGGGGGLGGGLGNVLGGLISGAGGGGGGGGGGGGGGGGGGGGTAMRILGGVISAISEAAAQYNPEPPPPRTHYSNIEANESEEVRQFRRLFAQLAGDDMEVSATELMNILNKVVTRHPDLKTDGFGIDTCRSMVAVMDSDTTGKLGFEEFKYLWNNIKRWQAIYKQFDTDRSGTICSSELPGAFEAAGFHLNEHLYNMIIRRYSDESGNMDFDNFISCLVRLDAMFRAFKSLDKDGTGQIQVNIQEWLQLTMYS
Experimental: The Ki value was also determined in some cases. These criteria were used to measure the inhibitory effect of the compounds (I) on calpain I, calpain II and cathepsin B.
Enzymatic Calpain Inhibition Assay
The inhibitory properties of calpain inhibitors are tested in 100 μl of a buffer containing 100 mM imidazole pH 7.5, 5 mM L-Cystein-HCl, 5 mM CaCl2, 250 μM of the calpain fluorogenic substrate Suc-Leu-Tyr-AMC (Sigma) (Sasaki et al., J. Biol. Chem., 1984, 259, 12489-12949) dissolved in 2.5 μl DMSO and 0.5 μg of human μ-calpain (Calbiochem). The inhibitors dissolved in 1 μl DMSO are added to the reaction buffer. The fluorescence of the cleavage product 7-amino-4-methylcoumarin (AMC) is followed in a SPECTRAmax GEMINI XS (Molecular Device) fluorimeter at λex=360 nm and λem=440 nm at 30° C. during 30 min at intervals of 30 sec in 96-well plates (Greiner). The initial reaction velocity at different inhibitor concentrations is plotted against the inhibitor concentration and the IC50 values determined graphically.

[2] = system: Primary fibroblasts from donors with Friedreich Ataxia (FRDA); assay: BSO assay (cell viability under BSO-induced oxidative stress); type: cell-based, human; details: 24 h preincubation, 1 mM BSO; for EC50: Homo sapiens, Fibroblast
Experimental: Primary fibroblasts were derived from donors with molecular diagnosis for Friedreich Ataxia (FRDA) and control donors with no mitochondrial disease. Cell lines were obtained from Coriell Cell Repositories (Camden, N.J.; catalog numbers GM04078, GM08402 and GM08399 respectively). All cell types were diagnosed on the molecular level for intronic […] triplet repeat length of at least 400-450 repeats using a PCR-based method. Experiments were carried out as described in the literature (M. L. Jauslin et al., Human Mol. Genet., 2002, 11, 3055-3063): Cells were seeded in microtiter plates at a density of 4'000 cells per 100 μl in growth medium consisting of 25% (v/v) M199 EBS and 64% (v/v) MEM EBS without phenol red (Bioconcept, Allschwil, Switzerland) supplemented with 10% (v/v) fetal calf serum (PAA Laboratories, Linz, Austria), 100 U/ml penicillin, 100 μg/ml streptomycin (PAA Laboratories, Linz, Austria), 10 μg/ml insulin (Sigma, Buchs, Switzerland), 10 ng/ml EGF (Sigma, Buchs, Switzerland), 10 ng/ml bFGF (PreproTech, Rocky Hill, N.J.) and 2 mM glutamine (Sigma, Buchs, Switzerland). The cells were incubated in the presence of various test compounds for 24 h before addition of L-buthionine-(S,R)-sulfoximine (BSO) to a final concentration of 1 mM. Cell viability was measured after the first signs of toxicity appeared in the BSO-treated controls (typically after 16 to 48 h). The cells were stained for 60 min at room temperature in PBS with 1.2 μM calcein AM and 4 μM ethidium homodimer (Live/Dead assay, Molecular Probes, Eugene, Oreg.). Fluorescence intensity was measured with a Gemini Spectramax XS spectrofluorimeter (Molecular Devices, Sunnyvale, Calif.) using excitation and emission wavelengths of 485 nm and 525 nm respectively.

Row | Compound | IC50 [1] | IC50 (human μ-calpain) | EC50 [2] | BSO EC50 [2]
1 | CCNC(=O)C(=O)[C@H](Cc1ccc(Cl)cc1)NC(=O)[C@@H](NC(=O)CCCCC1CCS[S+]1[O-])C(C)C (stereo partly shown) [Example 2] | 6000 nM | 80 nM | 2000 nM | 
2 | CCNC(=O)C(=O)[C@H](Cc1ccc(Cl)cc1)NC(=O)[C@@H](NC(=O)CCCC1CCCS1)C(C)C (stereo partly shown) [Example 5] | 2000 nM | 120 nM | 2000 nM | 
3 | CCNC(=O)C(=O)[C@H](Cc1ccc(Cl)cc1)NC(=O)[C@H](CC(C)C)NC(=O)CCCCC1CCSS1 (stereo partly shown) [Example 15] | 2500 nM | 22 nM | 4000 nM | 
4 | Cc1ccc(S(=O)(=O)CNC(=O)C(=O)[C@H](Cc2ccc(Cl)cc2)NC(=O)[C@H](CC(C)C)NC(=O)CCCCC2CCSS2)cc1 (stereo partly shown) [Example 25] | 1500 nM | 120 nM | 2000 nM | 
5 | CCNC(=O)C(=O)[C@H](Cc1ccc(Cl)cc1)NC(=O)[C@H](CC(C)(C)C)NC(=O)CCCCC1CCSS1 (stereo partly shown) [Example 27] | 3500 nM | 100 nM |  | inactive
6 | CCNC(=O)C(=O)[C@H](Cc1ccc(Cl)c(Cl)c1)NC(=O)[C@@H](NC(=O)CCCCC1CCSS1)C(C)C (stereo partly shown) [Example 29] | 10000 nM | 85 nM |  | 
7 | CCNC(=O)C(=O)[C@H](Cc1ccc(Cl)c(Cl)c1)NC(=O)[C@H](CC(C)C)NC(=O)CCCCC1CCSS1 (stereo partly shown) [Example 31] | 2500 nM | 30 nM | 15000 nM | 
8 | CCNC(=O)C(=O)[C@H](Cc1ccc(Cl)cc1Cl)NC(=O)[C@@H](NC(=O)CCCCC1CCSS1)C(C)C (stereo partly shown) [Example 33] | 40000 nM | 100 nM |  | inactive
9 | CCNC(=O)C(=O)[C@H](Cc1ccc(Cl)cc1Cl)NC(=O)[C@H](CC(C)C)NC(=O)CCCCC1CCSS1 (stereo partly shown) [Example 35] | 3000 nM | 50 nM |  | inactive
10 | CCNC(=O)C(=O)[C@H](Cc1ccc(F)c(F)c1)NC(=O)[C@@H](NC(=O)CCCCC1CCSS1)C(C)C (stereo partly shown) [Example 41] | 700 nM | 100 nM |  | 
11 | CCNC(=O)C(=O)[C@H](Cc1ccc(I)cc1)NC(=O)[C@H](CC(C)C)NC(=O)CCCCC1CCS[S+]1[O-] (stereo partly shown) [Example 79] | 500 nM | 15 nM |  | 
12 | CCNC(=O)C(=O)[C@H](Cc1ccc(C(C)(C)C)cc1)NC(=O)[C@@H](NC(=O)CCCCC1CCSS1)C(C)C (stereo partly shown) [Example 118] | 1800 nM | 400 nM |  | 
13 | CCNC(=O)C(=O)[C@H](Cc1ccc(C(C)(C)C)cc1)NC(=O)[C@H](CC(C)C)NC(=O)CCCCC1CCSS1 (stereo partly shown) [Example 120] | 850 nM | 95 nM |  | 
14 | CCNC(=O)C(=O)[C@H](Cc1ccc(C(F)(F)F)cc1)NC(=O)[C@H](CC(C)C)NC(=O)CCCCC1CCS[S+]1[O-] (stereo partly shown) [Example 125] | 800 nM | 40 nM |  | 
15 | CCNC(=O)C(=O)[C@H](Cc1ccc(Cl)cc1)NC(=O)[C@@H](NC(=O)CNC(=O)CCCCC1CCSS1)C(C)C (stereo partly shown) [Example 169] | 1000 nM | 25 nM |  | 
16 | CCNC(=O)C(=O)[C@H](Cc1ccc(Cl)cc1)NC(=O)[C@@H](NC(=O)CNC(=O)CCCCC1SC[C@@H]2NC(=O)N[C@H]12)C(C)C (stereo partly shown) [Example 212] | 3500 nM | 150 nM |  | 

Continued by falling IC50 (human μ-calpain), values first:

Row | IC50 [1] | IC50 (human μ-calpain) | Compound | EC50 [2] | BSO EC50 [2]
17 |  | 750 nM | CCNC(=O)C(=O)[C@@H](NC(=O)[C@@H](NC(=O)CCCCC1CCS[S+]1[O-])C(C)C)c1ccccc1 (stereo partly shown) [Example 154] |  | 
18 | 20000 nM | 500 nM | CCNC(=O)C(=O)[C@H](Cc1ccc(Cl)cc1Cl)NC(=O)[C@@H](NC(=O)CCCCC1CCS[S+]1[O-])C(C)C (stereo partly shown) [Example 34] |  | 
19 | 250 nM | 500 nM | CCNC(=O)C(=O)[C@H](CC(C)C)NC(=O)[C@@H](NC(=O)CCCCC1CCSS1)C(C)C (stereo partly shown) [Example 157] |  | 
20 | 3000 nM | 250 nM | CCNC(=O)C(=O)[C@H](CC1CCCCC1)NC(=O)[C@@H](NC(=O)CCCCC1CCSS1)C(C)C (stereo partly shown) [Example 149] |  | 
21 | 500 nM | 200 nM | Cc1ccc(S(=O)(=O)CNC(=O)C(=O)[C@H](Cc2ccc(Cl)cc2)NC(=O)[C@@H](NC(=O)CCCCC2CCSS2)C(C)C)cc1 (stereo partly shown) [Example 13] | 1000 nM | 
22 | 1200 nM | 200 nM | Cc1ccc(S(=O)(=O)CNC(=O)C(=O)[C@H](Cc2ccc(Cl)cc2)NC(=O)[C@@H](NC(=O)CCCCC2CCS[S+]2[O-])C(C)C)cc1 (stereo partly shown) [Example 14] |  | 
23 | 4000 nM | 180 nM | CCNC(=O)C(=O)[C@H](Cc1ccc(Cl)cc1)NC(=O)[C@H](CC(C)(C)C)NC(=O)CCCCC1CCS[S+]1[O-] (stereo partly shown) [Example 28] |  | inactive
24 | 4000 nM | 150 nM | CCNC(=O)C(=O)[C@H](Cc1ccc(Cl)cc1)NC(=O)[C@@H](NC(=O)CNC(=O)CCCCC1CCS[S+]1[O-])C(C)C (stereo partly shown) [Example 170] |  | 
25 | 2000 nM | 120 nM | Cc1ccc(S(=O)(=O)CNC(=O)C(=O)[C@H](Cc2ccc(Cl)cc2)NC(=O)[C@H](CC(C)C)NC(=O)CCCCC2CCS[S+]2[O-])cc1 (stereo partly shown) [Example 26] | 4000 nM | 
26 | 3200 nM | 110 nM | CCNC(=O)C(=O)[C@H](Cc1ccc(Cl)cc1)NC(=O)[C@@H](NC(=O)CCC1CCCS1)C(C)C (stereo partly shown) [Example 6] |  | 
27 | 4000 nM | 60 nM | COc1ccc(C[C@H](NC(=O)[C@@H](NC(=O)CCCCC2CCS[S+]2[O-])C(C)C)C(=O)C(=O)O)cc1 (stereo partly shown) [Example 89] |  | 
28 | 2000 nM | 50 nM | CCNC(=O)C(=O)[C@H](Cc1ccc(Cl)cc1)NC(=O)[C@H](CC(C)C)NC(=O)CCCCC1CCS[S+]1[O-] (stereo partly shown) [Example 16] | 4000 nM | 
